Assay results published in patent US20220372013A2, “PIPERIDINE-2,6-DIONE DERIVATIVES AND CROHN'S DISEASE TREATING” (Tianjin Hemay Pharmaceutical Sci-Tech Co., Ltd, priority 2016, published 2022).
“And” between values parts separate entries of the source, which are not always exact repeats. Equal entries are not always repeated. Where two headings read alike, the source gives them in different places. Marks after values point to notes of the source that are not given here.

What was measured:
[1] = tested on: DNBS-Induced Inflammatory Bowel Disease Models in Rats; test: Biological Example 4: DNBS-induced inflammatory bowel disease models in rats; assay type: in vivo, Wistar rats; settings: 30 mg/Kg i.g. qd × 7; for Adhesion Degree of Colon / Colon weight to length ratio / Ulcer area of colon / inhibition in vivo at 30 mg/kg: day 7; for Body weight: Mean ± SD; for inhibition in vivo at 30 mg/kg: Rattus norvegicus, po, 168 h
Method: 102 male Wistar rats were fasted for 72 hours. A 5% glucose injection was administered subcutaneously twice during fasting. 88 rats with normal conditions and moderate body weight were selected from the fasting rats. The animals were randomly divided into 11 groups according to the body weight (see Table 11. Grouped Table).
The animals were anesthetized with ether after 72 hours fasting. A specially made gavage device was slowly inserted into the enteric cavity at 8 cm from the anus. The model control group and each test group were administered with 0.5 mL of 50 mg/mL DNBS in 30% ethanol solution. The normal control group was administered with 0.5 mL of 30% ethanol solution. The animals were inverted in anesthesia for 15 minutes. The day when the model was prepared was day 0 of the experiment. After 4 hours of DNBS induction, the corresponding drug or the corresponding volume of 1% CMC-Na was administered once per day. On day 7 of the experiment, the animals were euthanized to score the colon adhesion degree, measure the length of colon and ulcer area, weigh colon and calculate the colon weight to length ratio.
One-way ANOVA analysis of the length of colon and colon weight per length of rats was performed by SPSS22. Statistical analyses between groups were performed. The adhesion degree was scored. Mann-Whitney U non-parametric test was performed on ulcer area. Statistical analyses between groups were performed.
Calculation Formula of Inhibitory rate of weight increase per length: (Colon weight to length ratio in model group−Colon weight to length ratio in administration group)/(Colon weight to length ratio in model group−Colon weight to length ratio in blank group)

mice = test: Biological Example 5: acute toxicity experiment of single oral administration in mice; assay type: in vivo; settings: single oral 1000 mg/Kg, Mean ± SD
Method: The mice were fasted one day before the experiment. On the day of the experiment, 6 mice (ICR mice, body weight of 19-21 g, three females and three males) were selected in each experiment group. First of all, one female and one male were selected to orally give 1000 mg/Kg, and observed for 5-10 minutes. If there were no obvious side effects, the remaining 4 animals were orally given the same dose, and observed for 10-15 minutes. If no animal died, the animals were placed in a box to balancedly feed for 7 days. The state was observed and the body weight was recorded daily.
Observation Indexes within 0-15 Minutes after Administration
Activity: restlessness, hyperactivity
Nervous system response: tremor, spasm, convulsion, ataxia, posture abnormality, etc.
Autonomic nerve: exophthalmos, salivation, tears, urination (hematuria), diarrhea, piloerection, breathing, etc.
State of Animal: lethargy, hyperactivity, excitement, hair loss, diarrhea, abnormal behavior, death, etc.

[2] = read-out: Inhibitory rate of colon adhesion
[3] = read-out: Inhibitory rate of ulcer area of colon
[4] = read-out: Inhibitory rate of weight increase per length

Row | Structure (SMILES) | Adhesion Degree of Colon [1] | Colon weight to length ratio [1] | Ulcer area of colon [1] | Body weight ([1]; Day 1) | Body weight ([1]; Day 2) | Body weight ([1]; Day 3) | Daily Body Weight (mice; Female mice, Day 1) | Daily Body Weight (mice; Female mice, Day 2) | Daily Body Weight (mice; Female mice, Day 3) | Daily Body Weight (mice; Female mice, Day 4) | Daily Body Weight (mice; Female mice, Day 5) | Daily Body Weight (mice; Female mice, Day 6) | Daily Body Weight (mice; Female mice, Day 7) | Daily Body Weight (mice; Male mice, Day 1) | Daily Body Weight (mice; Male mice, Day 2) | Daily Body Weight (mice; Male mice, Day 3) | Daily Body Weight (mice; Male mice, Day 4) | Daily Body Weight (mice; Male mice, Day 5) | Daily Body Weight (mice; Male mice, Day 6) | Daily Body Weight (mice; Male mice, Day 7) | other results
1 | COCCN1C(=O)CCC(F)(N2C(=O)c3cccc(N)c3C2=O)C1=O (stereo not shown) [Example 14, 4-amino-2-(1-(2-methoxyethyl)-3-fluoro-2,6-dioxopiperidin-3-yl)isoindolin-1,3-dione] | 0.8 ± 0.5 point | 102 ± 18 mg/cm | 0.1 ± 0.4# cm^2 | 126.2 ± 8.7 g | 125.1 ± 10.5 g | 129.5 ± 17.8 g | – | – | – | – | – | – | – | – | – | – | – | – | – | – | Body weight ([1]; Day 4): 136.5 ± 19.7 g; Body weight ([1]; Day 5): 146.4 ± 19.4 g; Body weight ([1]; Day 6): 147.6 ± 19.9 g; Body weight ([1]; Day 7): 165.7 ± 20.8 g; inhibition in vivo at 30 mg/kg [1, 2]: 62.2%; inhibition in vivo at 30 mg/kg [1, 3]: 95.8%; inhibition in vivo at 30 mg/kg [1, 4]: 70.6%
2 | COCCN1C(=O)CCC(N2C(=O)c3c(F)c(F)c(F)c(F)c3C2=O)C1=O (stereo not shown) [Example 5, 4,5,6,7-tetrafluoro-2-(1-(2-methoxyethyl)-2,6-dioxopiperidin-3-yl)isoindolin-1,3-dione] | 0.8 ± 0.5 point | 99 ± 14 mg/cm | 0.2 ± 0.5 cm^2 | 126.7 ± 8.9 g | 125.0 ± 11.0 g | 126.9 ± 14.0 g | – | – | – | – | – | – | – | – | – | – | – | – | – | – | Body weight ([1]; Day 4): 133.9 ± 13.3 g; Body weight ([1]; Day 5): 141.9 ± 14.9 g; Body weight ([1]; Day 6): 146.9 ± 13.9 g; Body weight ([1]; Day 7): 159.7 ± 14.3 g; inhibition in vivo at 30 mg/kg [1, 2]: 62.2%; inhibition in vivo at 30 mg/kg [1, 3]: 91.7%; inhibition in vivo at 30 mg/kg [1, 4]: 74.1%
3 | COCCN1C(=O)CCC(N2C(=O)c3cccc(C)c3C2=O)C1=O (stereo not shown) [Example 24, 4-methyl-2-(1-(2-methoxyethyl)-2,6-dioxopiperidin-3-yl)-isoindolin-1,3-dione] | 0.8 ± 0.7 point | 99 ± 18 mg/cm | 0.3 ± 0.3 cm^2 | 129.1 ± 5.5 g | 130.9 ± 10.4 g | 133.2 ± 14.5 g | 18.4 ± 0.7 g | 22.4 ± 1.0 g | 23.4 ± 1.0 g | 23.6 ± 0.9 g | 24.3 ± 0.6 g | 24.7 ± 0.6 g | 24.8 ± 1.5 g | 17.7 ± 0.2 g | 22.3 ± 0.7 g | 24.5 ± 1.0 g | 25.2 ± 1.0 g | 27.2 ± 1.3 g | 28.1 ± 2.0 g | 28.9 ± 1.9 g | Body weight ([1]; Day 4): 135.3 ± 13.6 g; Body weight ([1]; Day 5): 144.9 ± 12.6 g; Body weight ([1]; Day 6): 145.9 ± 13.3 g; Body weight ([1]; Day 7): 165.6 ± 12.1 g; inhibition in vivo at 30 mg/kg [1, 2]: 62.2%; inhibition in vivo at 30 mg/kg [1, 3]: 87.5%; inhibition in vivo at 30 mg/kg [1, 4]: 74.1%
4 | COCCN1C(=O)CCC(N2C(=O)c3cccc(NC(C)=O)c3C2=O)C1=O (stereo not shown) [Example 1, 4-acetylamino-2-(1-(2-methoxyethyl)-2,6-dioxopiperidin-3-yl)isoindolin-1,3-dione] | – | – | – | – | – | – | 18.5 ± 0.1 g | 22.8 ± 0.3 g | 23.2 ± 0.7 g | 24.0 ± 0.2 g | 25.3 ± 1.6 g | 25.7 ± 1.6 g | 27.1 ± 1.1 g | 20.1 ± 1.4 g | 23.8 ± 1.4 g | 24.9 ± 1.0 g | 26.3 ± 1.2 g | 27.7 ± 1.3 g | 29.2 ± 1.4 g | 29.4 ± 1.4 g | –
5 | COCCN1C(=O)CCC(N2C(=O)c3cccc(N(C)C)c3C2=O)C1=O (stereo not shown) [Example 3, 4-dimethylamino-2-(1-(2-methoxyethyl)-2,6-dioxopiperidin-3-yl)isoindolin-1,3-dione] | – | – | – | – | – | – | – | – | – | – | – | – | – | – | – | – | – | – | – | – | Daily Body Weight (mice; Female mice, Day 1, 1000 mg/kg): 18.3 ± 0.4 g and 18.8 ± 0.4 g; Daily Body Weight (mice; Female mice, Day 2, 1000 mg/kg): 21.7 ± 0.2 g and 22.1 ± 1.2 g; Daily Body Weight (mice; Female mice, Day 3, 1000 mg/kg): 22.3 ± 0.2 g and 22.7 ± 0.8 g; Daily Body Weight (mice; Female mice, Day 4, 1000 mg/kg): 22.6 ± 0.8 g and 23.0 ± 1.4 g; Daily Body Weight (mice; Female mice, Day 5, 1000 mg/kg): 23.0 ± 1.4 g and 23.7 ± 1.9 g; Daily Body Weight (mice; Female mice, Day 6, 1000 mg/kg): 22.6 ± 1.3 g and 24.1 ± 1.2 g; Daily Body Weight (mice; Female mice, Day 7, 1000 mg/kg): 22.7 ± 0.4 g and 24.4 ± 1.8 g; Daily Body Weight (mice; Male mice, Day 1, 1000 mg/kg): 18.8 ± 0.7 g and 18.0 ± 0.2 g; Daily Body Weight (mice; Male mice, Day 2, 1000 mg/kg): 23.3 ± 0.1 g and 22.9 ± 0.3 g; Daily Body Weight (mice; Male mice, Day 3, 1000 mg/kg): 24.3 ± 0.1 g and 24.3 ± 0.9 g; Daily Body Weight (mice; Male mice, Day 4, 1000 mg/kg): 25.6 ± 0.7 g and 25.2 ± 1.1 g; Daily Body Weight (mice; Male mice, Day 5, 1000 mg/kg): 26.9 ± 0.8 g and 27.0 ± 1.3 g; Daily Body Weight (mice; Male mice, Day 6, 1000 mg/kg): 27.9 ± 0.9 g and 28.2 ± 1.9 g; Daily Body Weight (mice; Male mice, Day 7, 1000 mg/kg): 28.6 ± 0.4 g and 28.5 ± 2.7 g
6 | COCCCN1C(=O)CCC(N2C(=O)c3cccc(F)c3C2=O)C1=O (stereo not shown) [Example 17, 4-fluoro-2-(1-(3-methoxypropyl)-2,6-dioxopiperidin-3-yl)isoindolin-1,3-dione] | – | – | – | – | – | – | 18.6 ± 1.0 g | 21.9 ± 0.4 g | 22.7 ± 0.4 g | 22.7 ± 0.4 g | 23.0 ± 0.4 g | 23.1 ± 1.0 g | 22.7 ± 1.2 g | 19.0 ± 0.7 g | 24.0 ± 0.7 g | 24.6 ± 0.8 g | 24.6 ± 0.8 g | 26.1 ± 0.7 g | 28.1 ± 0.6 g | 29.3 ± 1.0 g | –
7 | CCOCCN1C(=O)CCC(N2C(=O)c3cccc(F)c3C2=O)C1=O (stereo not shown) [Example 20, 4-fluoro-2-(1-(2-ethoxyethyl)-2,6-dioxopiperidin-3-yl)isoindolin-1,3-dione] | – | – | – | – | – | – | 18.7 ± 0.4 g | 21.6 ± 1.0 g | 22.1 ± 1.0 g | 22.1 ± 1.0 g | 23.0 ± 1.4 g | 23.3 ± 0.2 g | 23.7 ± 0.8 g | 18.8 ± 1.0 g | 24.0 ± 1.1 g | 25.3 ± 1.2 g | 25.3 ± 1.2 g | 26.7 ± 1.2 g | 29.0 ± 1.1 g | 29.3 ± 0.7 g | –
